Values joined by “and” are separate entries in the source; they are usually repeats but may differ in a detail not shown here. Equal entries are not always repeated. Inconclusive results and toxic doses are left out.

For 30 compounds, T/C results are on record in PubChem BioAssay AID330 (DTP/NCI, 2004).

The assay relates to P388 leukemia ip, CD2F1 mice, survival T/C. Kind of assay: NCI In Vivo Anticancer Drug Screen. Data for tumor model P388 Leukemia (intraperitoneal) in CD2F1 (CDF1) mice. To be noted: endpoint: median survival time, higher = longer survival. A digest of the protocol:
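Mice carrying the transplanted tumor received test compound or vehicle. Survival was recorded in each group, and the value is the treated-group measurement divided by that of the vehicle-treated control group.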

The mark [1] stands for this setting: dose: 50.0 mg/kg/injection, schedule: Q01DX009 (ip), vehicle: saline.
Setting [2] is: dose: 100.0 mg/kg/injection, schedule: Q01DX009 (ip), vehicle: saline.
[3] abbreviates: dose: 50.0 mg/kg/injection, schedule: Q01DX009 (ip), vehicle: saline with Tween-80.
Setting [4] is: dose: 100.0 mg/kg/injection, schedule: Q01DX009 (ip), vehicle: saline with Tween-80.
[5] abbreviates: dose: 200.0 mg/kg/injection, schedule: Q01DX009 (ip), vehicle: saline with Tween-80.
[6] abbreviates: dose: 25.0 mg/kg/injection, schedule: Q01DX009 (ip), vehicle: saline.
[7] abbreviates: dose: 50.0 mg/kg/injection, schedule: Q01DX005 (ip), vehicle: Klucel (hydroxypropylcellulose) (HPC).
The mark [8] stands for this setting: dose: 100.0 mg/kg/injection, schedule: Q01DX005 (ip), vehicle: Klucel (hydroxypropylcellulose) (HPC).
Setting [9] is: dose: 200.0 mg/kg/injection, schedule: Q01DX005 (ip), vehicle: Klucel (hydroxypropylcellulose) (HPC).
Setting [10] is: dose: 12.5 mg/kg/injection, schedule: Q01DX005 (ip), vehicle: Klucel (hydroxypropylcellulose) (HPC).
Setting [11] is: dose: 25.0 mg/kg/injection, schedule: Q01DX005 (ip), vehicle: Klucel (hydroxypropylcellulose) (HPC).
Setting [12] is: dose: 60.0 mg/kg/injection, schedule: Q01DX005 (ip), vehicle: saline with Tween-80.
Setting [13] is: dose: 120.0 mg/kg/injection, schedule: Q01DX005 (ip), vehicle: saline with Tween-80.
[14] abbreviates: dose: 240.0 mg/kg/injection, schedule: Q01DX005 (ip), vehicle: saline with Tween-80.
Setting [15] is: dose: 50.0 mg/kg/injection, schedule: Q01DX005 (ip), vehicle: saline with Tween-80.
Where [16] appears, read: dose: 100.0 mg/kg/injection, schedule: Q01DX005 (ip), vehicle: saline with Tween-80.
The mark [17] stands for this setting: dose: 200.0 mg/kg/injection, schedule: Q01DX005 (ip), vehicle: saline with Tween-80.
The mark [18] stands for this setting: dose: 200.0 mg/kg/injection, schedule: Q01DX009 (ip), vehicle: saline.

Turning to `COC1=CC(=O)C(OC)=C(OC)C1=O`, the T/C is 112 % of control (dose: 22.0 mg/kg/injection, schedule: Q01DX009 (ip), vehicle: saline with Tween-80); 123 % of control (dose: 33.0 mg/kg/injection, schedule: Q01DX009 (ip), vehicle: saline with Tween-80); 104 % of control (dose: 75.0 mg/kg/injection, schedule: Q01DX009 (ip), vehicle: saline with Tween-80).

As to `CC(=O)OC/C(C)=N\NS(=O)(=O)c1cc(Cl)c(Cl)cc1Cl`, the T/C by setting is: under setting [1], 99 % of control; under setting [2], 86 % of control.

As for `Cc1onc(-c2ccccc2Cl)c1C(=O)SCC(=O)Nc1cc(C(F)(F)F)cc(C(F)(F)F)c1`, the T/C was 98 % of control under setting [3], 100 % of control under setting [4] and 89 % of control under setting [5].

For the compound `O=[N+]([O-])O.[Al]`, the T/C runs as follows: under setting [6], 100 % of control; under setting [1], 91 % of control; under setting [2], 86 % of control; (dose: 100.0 mg/kg/injection, schedule: Q04DX003 (ip), vehicle: saline) 90 % of control.

Take `CCC1=CCC2C(=O)C3C(C(=O)C2C1)C1(c2ccccc2)OC3(c2ccccc2)c2ccccc21` (centres undefined): the T/C under setting [3] is 95 % of control, the T/C under setting [4] is 88 % of control and the T/C under setting [5] is 87 % of control.

Regarding `CCCCC(NC(=O)OC(C)(C)C)C(=O)O` (centres undefined), the T/C reads like this: under setting [7], 98 % of control; under setting [8], 99 % of control; under setting [9], 104 % of control.

As to `COC1=C(OC)C(=O)C(Sc2ccccc2)=C(CO)C1=O`, the T/C by setting is: (dose: 1.56 mg/kg/injection, schedule: Q01DX005 (ip), vehicle: saline with Tween-80) 92 % of control; (dose: 3.12 mg/kg/injection, schedule: Q01DX005 (ip), vehicle: saline with Tween-80) 87 % of control; (dose: 12.5 mg/kg/injection, schedule: Q01DX005 (ip), vehicle: saline with Tween-80) 99 % of control.

Regarding `COc1cc(NC(C)=O)c(OC)c2c(Cl)ccnc12`, the T/C is 101 % of control (dose: 100.0 mg/kg/injection, schedule: Q01DX001 (ip), vehicle: acid diluted with saline) and 99 % of control (dose: 200.0 mg/kg/injection, schedule: Q01DX001 (ip), vehicle: acid diluted with saline).

Consider `N#Cc1c(C(F)(F)F)cc(-c2cccs2)nc1SC(C(=O)Nc1c(F)cccc1F)c1ccccc1` (centres undefined), for which the T/C is, setting by setting: under setting [7], 94 % of control; under setting [8], 94 % of control; under setting [9], 94 % of control.

Consider `COc1cc(OC)c2c(c1)C(C1c3cc(C)cc(O)c3C(=O)c3c(OC)cc(OC)cc31)c1cc(C)cc(O)c1C2=O` (centres undefined), for which the T/C by setting is: under setting [10], 105 % of control; under setting [11], 100 % of control; under setting [7], 92 % of control; under setting [8], 92 % of control; under setting [9], 96 % of control.

As to `Cc1ccc(C(C#N)C(=O)CCCC(=O)Nc2ccc(C)c(C)c2)cc1` (centres undefined), the T/C is 109 % of control under setting [12], 100 % of control under setting [13] and 100 % of control under setting [14].

On to `O=P1(N2CCOCC2)OC(c2ccccc2)=CCN1c1ccccc1` (centres undefined), for which the T/C is 103 % of control under setting [7], 103 % of control under setting [8] and 104 % of control under setting [9].

`N#CC1(C#N)C(C#N)(C#N)C12CCCCCC2`: the T/C is, setting by setting: (dose: 12.5 mg/kg/injection, schedule: Q04DX003 (ip), vehicle: Klucel (hydroxypropylcellulose) (HPC)) 106 % of control; (dose: 25.0 mg/kg/injection, schedule: Q04DX003 (ip), vehicle: Klucel (hydroxypropylcellulose) (HPC)) 112 % of control; (dose: 50.0 mg/kg/injection, schedule: Q04DX003 (ip), vehicle: Klucel (hydroxypropylcellulose) (HPC)) 95 % of control.

Turning to `O=C(O)c1ccc2ccccc2n1`, the T/C is 96 % of control (dose: 100.0 mg/kg/injection, schedule: Q04DX002 (ip), vehicle: saline); 94 % of control (dose: 200.0 mg/kg/injection, schedule: Q04DX002 (ip), vehicle: saline); 104 % of control (dose: 400.0 mg/kg/injection, schedule: Q04DX002 (ip), vehicle: saline).

On to `Cc1nn(C)c(=S)[nH]c1=O`, for which the T/C is, setting by setting: under setting [7], 103 % of control; under setting [15], 105 % of control; under setting [8], 95 % of control; under setting [16], 106 % of control; under setting [9], 110 % of control; under setting [17], 103 % of control.

As to `CN(Cc1ccccc1)C(=O)C(=O)c1c[nH]c2ccccc12`, the T/C reads like this: under setting [4], 86 % of control; under setting [5], 90 % of control.

On to `NC(=O)c1ccccc1N1CCCCC1`, for which the T/C is, setting by setting: under setting [15], 99 % of control; under setting [16], 100 % of control; under setting [17], 91 % of control.

For `O=C1CC(=O)C(C(=O)c2ccccc2)N1` (centres undefined), the T/C reads like this: under setting [15], 96 % of control; under setting [16], 97 % of control; under setting [17], 94 % of control.

Take `Clc1cc(=Nc2ccccc2)n2ccccc2n1`: the T/C by setting is: (dose: 60.0 mg/kg/injection, schedule: Q01DX005 (ip), vehicle: Klucel (hydroxypropylcellulose) (HPC)) 96 % of control; (dose: 120.0 mg/kg/injection, schedule: Q01DX005 (ip), vehicle: Klucel (hydroxypropylcellulose) (HPC)) 99 % of control; (dose: 240.0 mg/kg/injection, schedule: Q01DX005 (ip), vehicle: Klucel (hydroxypropylcellulose) (HPC)) 97 % of control.

Consider `CCOc1cccc2c1CCC(O[Si](C)(C)C(C)(C)C)C2` (centres undefined), for which the T/C is 94 % of control under setting [15], 95 % of control under setting [16] and 96 % of control under setting [17].

In the case of `COC(=O)C(C)N(CCCl)P(=O)(N1CC1)N1CC1` (centres undefined), the T/C by setting is: (dose: 7.5 mg/kg/injection, schedule: Q01DX005 (ip), vehicle: saline) 119 % of control; (dose: 30.0 mg/kg/injection, schedule: Q01DX005 (ip), vehicle: saline) 182 % of control.

In the case of `C=CCCCC(=O)CCCCBr`, the T/C under setting [3] was 122 % of control, the T/C under setting [4] was 108 % of control and the T/C under setting [5] was 110 % of control.

Consider `C=C(C)C(=O)OC1CC2=CC(CC3(C)OC3C3OC(=O)C(=C)C13)OC2=O` (centres undefined), for which the T/C is 100 % of control (dose: 2.25 mg/kg/injection, schedule: Q01DX009 (ip), vehicle: Klucel (hydroxypropylcellulose) (HPC)); 103 % of control (dose: 2.3 mg/kg/injection, schedule: Q01DX009 (ip), vehicle: Klucel (hydroxypropylcellulose) (HPC)); 100 % of control and 97 % of control (dose: 4.5 mg/kg/injection, schedule: Q01DX009 (ip), vehicle: Klucel (hydroxypropylcellulose) (HPC)); 100 % of control and 111 % of control (dose: 9.0 mg/kg/injection, schedule: Q01DX009 (ip), vehicle: Klucel (hydroxypropylcellulose) (HPC)); 114 % of control and 115 % of control (dose: 18.0 mg/kg/injection, schedule: Q01DX009 (ip), vehicle: Klucel (hydroxypropylcellulose) (HPC)).

In the case of `COc1ccc(C(=O)/C(C)=C(/C)N)c(OCc2ccccc2)c1OC`, the T/C reads like this: under setting [7], 104 % of control; under setting [8], 94 % of control; under setting [9], 105 % of control.

As to `CN(C)C(=O)n1ccc(NC=O)n1`, the T/C reads like this: under setting [1], 92 % of control; under setting [2], 94 % of control; under setting [18], 103 % of control.

In the case of `c1ccc2c(c1)[nH]c1c2c(N2CCOCC2)nn2cnnc12`, the T/C runs as follows: (dose: 6.25 mg/kg/injection, schedule: Q01DX005 (ip), vehicle: Klucel (hydroxypropylcellulose) (HPC)) 101 % of control; under setting [10], 100 % of control; under setting [11], 89 % of control; under setting [7], 99 % of control; under setting [12], 95 % of control; under setting [8], 100 % of control. Further, the T/C runs as follows: under setting [13], 93 % of control; under setting [14], 98 % of control.

Take `COc1ccc(CN2CCc3cc(OC)c(O)cc3C2)cc1O`: the T/C was 94 % of control (dose: 100.0 mg/kg/injection, schedule: Q01DX001 (ip), vehicle: saline with Tween-80) and 98 % of control (dose: 200.0 mg/kg/injection, schedule: Q01DX001 (ip), vehicle: saline with Tween-80).

As for `CC(=O)NC(CSc1ccccc1)C(=O)O` (centres undefined), the T/C is 100 % of control under setting [15], 100 % of control under setting [16] and 99 % of control under setting [17].

For the compound `S=C1SC2(CCCC2)NC2=C1CCC2`, the T/C by setting is: under setting [3], 90 % of control; under setting [4], 93 % of control; under setting [5], 99 % of control.

For `OCCN(CCO)CCCCCCN(CCO)CCO`, the T/C runs as follows: under setting [6], 98 % of control; under setting [1], 104 % of control; under setting [2], 107 % of control; under setting [18], 113 % of control.
